Data reported in patent publication US10941137B2, “Difluoromethyl-phenyl triazoles” (Boehringer Ingelheim International GmbH, priority 2018, dated 2021).
pEC50, pKi: −log10 of the molar value.

Columns and labels:
[1] = biological target: T1, α5β2γ2 GABAA receptor (Homo sapiens, UniProt P18507+P31644); experiment: Assay B: modulation of α5β2γ2 GABAA receptor, two-electrode voltage clamp in oocytes; assay type: cell-based; conditions: for pEC50: oocytes, TEVC, co-application with GABA 0.5 μM (EC5-20), read-out: Assay B: GABAA α5β3γ2 EC50
T1 sequence (P31644 32-462): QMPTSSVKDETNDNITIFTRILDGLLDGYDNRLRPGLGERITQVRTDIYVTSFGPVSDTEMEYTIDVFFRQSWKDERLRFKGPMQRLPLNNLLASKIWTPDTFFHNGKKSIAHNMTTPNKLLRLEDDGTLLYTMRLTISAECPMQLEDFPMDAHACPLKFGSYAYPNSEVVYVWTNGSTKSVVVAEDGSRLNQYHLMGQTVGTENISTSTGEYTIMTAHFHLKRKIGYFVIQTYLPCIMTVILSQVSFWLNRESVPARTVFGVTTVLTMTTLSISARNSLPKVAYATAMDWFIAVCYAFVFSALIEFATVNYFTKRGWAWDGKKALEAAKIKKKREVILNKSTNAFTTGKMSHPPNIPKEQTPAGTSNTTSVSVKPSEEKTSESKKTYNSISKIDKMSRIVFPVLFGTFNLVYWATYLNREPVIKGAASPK
T1 sequence (P18507 40-376 limits assumed): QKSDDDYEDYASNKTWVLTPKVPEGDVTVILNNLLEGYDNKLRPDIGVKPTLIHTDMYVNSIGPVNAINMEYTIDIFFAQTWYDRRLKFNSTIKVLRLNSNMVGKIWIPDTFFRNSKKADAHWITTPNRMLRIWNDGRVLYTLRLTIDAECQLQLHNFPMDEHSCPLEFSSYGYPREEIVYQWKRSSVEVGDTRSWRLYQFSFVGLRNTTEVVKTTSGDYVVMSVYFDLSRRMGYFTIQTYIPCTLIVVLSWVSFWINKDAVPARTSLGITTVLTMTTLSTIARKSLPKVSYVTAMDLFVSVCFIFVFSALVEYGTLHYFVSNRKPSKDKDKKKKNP
Experimental: Assay B: In vitro evaluation of modulation of α5β2γ2 GABAA receptor.
Modulatory efficacy of compounds of formula (I) is determined electrophysiological recordings in oocytes using the two-electrode voltage clamp (TEVC) technique. Oocytes are injected with cRNA for human GABAA receptor subunits α5, β2 and γ2 in a 3:1:3 ratio and modulatory efficacy is evaluated by co-applications with a submaximal EC5-20 GABA concentration (0.5 μM) termed GABA control. As a standard, the compounds are tested in five concentrations (3.16, 0.316, 0.0316, 0.00316 and 0.000316 μM) on each oocyte starting with the lowest concentration. Background subtracted peak current amplitudes are normalized to the respective GABA control current, converted to % change and depicted +/−S.E.M. as a function of increasing compound concentrations. Plotted datapoints are fitted to the empirical Hill equation using non-linear regression. 95% confidence intervals for maximal efficacy (Bottom) and potency (Log EC50) are derived from this fitting routine.

[2] = test system: human MDR1 P-gp; experiment: Efflux in MDCK cells transfected with the human MDR1 gene (MDCK-PGP permeability); assay type: in vitro ADME, canine; conditions: dog, pH 7.4, 37° C.; for efflux ratio: PEBA/PEAB; for Papp A→B: apical-to-basal apparent permeability (PEAB)
Experimental: Assessment of Efflux in Madin-Darby Canine Kidney (MDCK) Cells Transfected with the 30 Human MDR1 Gene to Assess Brain Penetration (Drug Metabolism and Disposition February 2008, 36 (2) 268-275; DOI: https://doi.org/10.1124/dmd.107.017434) Apparent permeability coefficients (PE) of the compounds across the MDCK-MDR1 cell monolayers are measured (pH 7.4, 37° C.) in apical-to-basal (AB) and basal-to-apical (BA) transport direction. AB permeability (PEAB) represents drug absorption from the blood into the 35 brain and BA permeability (PEBA) drug efflux from the brain back into the blood via both passive permeability as well as active transport mechanisms mediated by efflux and uptake transporters that are expressed on the MDCK-MDR1 cells, predominantly by the overexpressed human MDR1 P-gp. The compounds are assigned to permeability/absorption classes by comparison of the AB permeabilities with the AB permeabilities of reference compounds with known in vitro permeability and oral absorption in the human. Identical or similar permeabilities in both transport directions indicate passive permeation, vectorial permeability points to additional active transport mechanisms. Higher PEBA than PEAB indicates the involvement of active efflux mediated by MDR1 P-gp. Active transport is concentration-dependently saturable.
MDCK-MDR1 cells (1-2×10e5 cells/1 cm2 area) are seeded on filter inserts (Costar transwell polycarbonate or PET filters, 0.4 μm pore size) and cultured (DMEM) for 7 days. Subsequently, the MDR1 expression is boosted by culturing the cells with 5 mM sodium butyrate in full medium for 2 days. Compounds are dissolved in appropriate solvent (like DMSO, 1-20 mM stock solutions). Stock solutions are diluted with HTP-4 buffer (128.13 mM NaCl, 5.36 mM KCl, 1 mM MgSO4, 1.8 mM CaCl2, 4.17 mM NaHCO3, 1.19 mM Na2HPO4×7H2O, 0.41 mM NaH2PO4xH2O, 15 mM HEPES, 20 mM glucose, 0.25% BSA, pH 7.4) to prepare the transport solutions (0.1-300 μM compound, final DMSO <=0.5%). The transport solution (TL) is applied to the apical or basolateral donor side for measuring A-B or B-A permeability (3 filter replicates), respectively. The receiver side contains the same buffer as the donor side. Samples are collected at the start and end of experiment from the donor and at various time intervals for up to 2 hours also from the receiver side for concentration measurement by HPLC-MS/MS or scintillation counting. Sampled receiver volumes are replaced with fresh receiver solution.

[3] = Metabolic stability in human liver microsomes (Human MST); assay type: in vitro ADME; conditions: pooled human liver microsomes, pH 7.6; human liver microsomes 1 mg/mL, 1 μM compound, NADPH 1 mM, 37° C.; read-out: Human MST t1/2
Experimental: Assessment of Metabolic Stability in Human Liver Microsomes (Human MST) The metabolic stability of the compounds according to the invention may be investigated as follows: The metabolic degradation of the test compound is assayed at 37° C. with pooled human liver microsomes. The final incubation volume of 100 μL per time point contains TRIS buffer pH 7.6 at room temperature (0.1 M), MgCl2 (5 mM), microsomal protein (1 mg/mL) and the test compound at a final concentration of 1 μM. Following a short pre-incubation period at 37° C., the reactions are initiated by addition of beta-nicotinamide adenine dinucleotide phosphate, reduced form (NADPH, 1 mM), and terminated by transferring an aliquot into solvent after different time points. After centrifugation (10000 g, 5 min), an aliquot of the supernatant is assayed by LCMS/MS for the amount of parent compound. The half-life (t½) is determined by the slope of the semi-logarithmic plot of the concentration-time profile.

[4] = biological target: T2, human GABAA α5β3γ2s receptor (Homo sapiens, UniProt P18507+P31644); experiment: Assay A: in vitro inhibition of 3H-flumazenil binding, HEK cells expressing human GABAA α5β3γ2s receptor; conditions: 3H-flumazenil 1 nM, HEK-293 membranes, 40 min at 2° C.; Ki from IC50 by Cheng and Prusoff
T2 sequence (P18507 1-475): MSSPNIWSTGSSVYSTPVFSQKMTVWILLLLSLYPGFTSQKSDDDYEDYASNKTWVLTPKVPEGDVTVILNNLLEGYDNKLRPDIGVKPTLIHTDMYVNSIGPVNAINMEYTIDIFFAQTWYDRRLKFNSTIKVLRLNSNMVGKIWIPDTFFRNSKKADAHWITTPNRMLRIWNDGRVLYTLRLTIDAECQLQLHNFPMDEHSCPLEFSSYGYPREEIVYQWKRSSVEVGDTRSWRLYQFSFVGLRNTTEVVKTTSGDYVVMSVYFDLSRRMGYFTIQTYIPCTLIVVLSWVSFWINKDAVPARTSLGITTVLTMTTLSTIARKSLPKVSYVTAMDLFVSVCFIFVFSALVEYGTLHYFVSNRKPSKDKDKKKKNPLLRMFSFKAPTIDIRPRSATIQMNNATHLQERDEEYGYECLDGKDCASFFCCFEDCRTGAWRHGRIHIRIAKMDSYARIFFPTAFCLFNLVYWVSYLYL
T2 sequence (P31644 1-462): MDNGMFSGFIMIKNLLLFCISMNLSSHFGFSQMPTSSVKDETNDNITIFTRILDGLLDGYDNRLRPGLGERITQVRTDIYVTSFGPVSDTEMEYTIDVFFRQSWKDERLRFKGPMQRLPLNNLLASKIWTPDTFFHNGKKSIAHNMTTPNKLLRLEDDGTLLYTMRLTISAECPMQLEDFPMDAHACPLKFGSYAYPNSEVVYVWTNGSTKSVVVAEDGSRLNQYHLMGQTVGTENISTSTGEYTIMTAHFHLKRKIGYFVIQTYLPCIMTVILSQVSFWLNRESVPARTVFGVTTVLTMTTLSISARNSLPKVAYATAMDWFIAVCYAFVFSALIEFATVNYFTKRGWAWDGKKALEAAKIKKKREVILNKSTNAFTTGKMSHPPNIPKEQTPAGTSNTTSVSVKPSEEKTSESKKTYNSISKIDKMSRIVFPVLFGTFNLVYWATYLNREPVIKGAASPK
Experimental: HEK-293 cell lines with stable expression of recombinant human GABAA α5β3γ2s receptors (plasmid H46/E9/B10) are seeded in T175 polystyrene flasks or roller bottles (1700 cm^2, Fisher Scientific CCI-431191), and cultured (37 C, 5% CO˜) in Dulbecco's Modified Eagle Medium (DMEM) with GlutaMAX™ supplemented with 10% fetal bovine serum and one or both of the following antibiotics: hygromycin B ([…]; γ2 subunit) or G418 (0.5 mg/ml; […]).
When the cultures reach confluency, the DMEM is removed and the cells are washed (10 ml for T175 flasks; 50 ml for roller bottles) once in Dulbecco's Phosphate Buffered Saline (DPBS). Following addition of DPBS to the cultures (10 ml for T175 flasks; 100 ml for roller bottles) for approximately 5 min cells are easily detached from the surface by shaking or tapping the flask gently. The cell suspension is transferred to Falcon tubes and centrifuged at 23,500×g for 10 min at 2° C. The pellet is washed once in 15 ml Tris-citrate buffer (50 mM, pH 7.1) using an Ultra-Turrax homogenizer and centrifuged at 2° C. for 10 min at 27,000×g. The washed pellet is re-suspended in 15 ml Tris-citrate buffer and frozen at −80° C. until the day of the binding experiment.
On the day of the experiment the cell membrane preparation is thawed and centrifuged at 2° C. for 10 min at 27,000×g. The pellet is re-suspended, using an Ultra-Turrax homogenizer in Tris-citrate buffer, to 15-50 µg protein per assay and then used for binding assays.
Non-specific binding is determined using clonazepam (1 μM, final concentration).
All dilutions of test compounds and incubation of assay are performed in glass vials/96-vial plates. […] Compounds are dissolved in 100% DMSO (10 mM stock), diluted in 48% ethanol-water, and tested in triplicate in serial 1:3 or 1:10 dilutions. When screening large numbers of compounds only one concentration of each compound is tested in single wells. Reference compounds are not included routinely, but for each experiment performed total and nonspecific binding is compared to data obtained during validation of the assay.
Binding is either terminated by rapid filtration onto
1) Whatman GF/C glass fibre filters using a Brandel Cell harvester, followed by 5 washes with 1 ml ice-cold buffer or onto 2) UniFilter GF/C glass fibre filter plates using a Tomtec cell harvester, followed by washing with approximately 5 ml ice-cold buffer.
The amount of radioactivity on the filters is determined by conventional liquid scintillation counting using a
1) Tri-Garb™ counter (PerkinElmer Life and Analytical Sciences) for separate large filters or
2) Topcount™ counter (PerkinElmer Life and Analytical Sciences) for 96-well filter plates. Specific binding is total binding minus non-specific binding.
For screening purposes n is set to 1. The IC50 value is calculated from the concentration response curves by the non-linear regression method using the curve-fitting program GraphPad Prism. […]

Cc1nnn(-c2ccc(C(F)F)cc2)c1COc1ccc(-n2cnc(C#N)c2)nn1 [Example 1, 1-[6-({1-[4-(difluoromethyl)phenyl]-4-methyl-1H-1,2,3-triazol-5-yl}methoxy)pyridazin-3-yl]-1H-imidazole-4-carbonitrile]
Assay B: GABAA α5β3γ2 Emax vs GABA [1]: -23.3%
pEC50 [1]: 8.82
efflux ratio [2]: 2.6
Papp A→B [2]: 18.1 ×10⁻⁶ cm/s
half-life at 1 μM [3]: > 2.17 h

Cc1nnn(-c2ccc(C(F)F)cc2)c1COc1ccc(-c2ccn[nH]2)nn1 [Example 10]
Assay B: GABAA α5β3γ2 Emax vs GABA [1]: -18%
pEC50 [1]: 8.24
efflux ratio [2]: 1.7
Papp A→B [2]: 22.4 ×10⁻⁶ cm/s
half-life at 1 μM [3]: > 2.17 h

Cc1nnn(-c2ccc(C(F)F)cc2)c1COc1ccc(-c2cnccn2)nn1 [Example 13]
Assay B: GABAA α5β3γ2 Emax vs GABA [1]: -23%
pEC50 [1]: 8.05
efflux ratio [2]: 0.5
Papp A→B [2]: 69 ×10⁻⁶ cm/s
half-life at 1 μM [3]: > 2.17 h

Cc1nnn(-c2ccc(C(F)F)cc2)c1COc1ccc(-n2cnc([S+](C)[O-])c2)nn1 (stereo not shown) [Example 23]
Assay B: GABAA α5β3γ2 Emax vs GABA [1]: -12%
pEC50 [1]: 8.70
pKi [4]: 9.57

Cc1nnn(-c2ccc(C(F)F)cc2)c1COc1ccc(-n2cncn2)nn1 [Example 28, 3-({1-[4-(difluoromethyl)phenyl]-4-methyl-1H-1,2,3-triazol-5-yl}methoxy)-6-(1H-1,2,4-triazol-1-yl)pyridazine]
Assay B: GABAA α5β3γ2 Emax vs GABA [1]: -25%
pEC50 [1]: 8.26
efflux ratio [2]: 0.6
Papp A→B [2]: 68.7 ×10⁻⁶ cm/s
half-life at 1 μM [3]: > 2.17 h

Cc1nnn(-c2ccc(C(F)F)cc2)c1COc1ccc(-n2nc(C#N)cc2C)nn1 [Example 34]
Assay B: GABAA α5β3γ2 Emax vs GABA [1]: -4.3%
pKi [4]: 10.46
